Results from ChEMBL document CHEMBL1201862, “PubChem BioAssay data set” (2004).
Activity calls are given as the source filed them.

Experiments:
[1] = target: T1, Endoribonuclease toxin MazF (Escherichia coli K-12, UniProt P0AE70); assay: MazF endoribonuclease activators, SAR follow-up, biochemical, fluorescence, single-stranded RNA substrate (AID 588603); format: functional
T1 sequence (P0AE70 whole entry): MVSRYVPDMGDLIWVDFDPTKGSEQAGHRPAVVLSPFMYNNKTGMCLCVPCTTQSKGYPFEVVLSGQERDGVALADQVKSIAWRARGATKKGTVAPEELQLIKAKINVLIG

[2] = target: T1, Endoribonuclease toxin MazF; assay: MazF toxin RNase activators, dose response, biochemical, fluorescence, single-stranded RNA substrate, uHTS hits (AID 588481); format: functional
MEF = assay: SAR analysis of small molecule cytotoxicity of MazEF TA System activators in embryonic fibroblast (MEF) cells. [Related pubchem assays (depositor defined):AID504720, AID504743]; format: functional; conditions: Mus musculus
[3] = target: T1, Endoribonuclease toxin MazF; assay: SAR analysis of small molecule activators of the MazEF TA System via a fluorescence-based single-stranded RNase assay counterscreen. [Related pubchem assays (depositor defined):AID504720, AID504743]; format: functional
[4] = target: T1, Endoribonuclease toxin MazF; assay: fluorescent RNA oligo signal without MazF, dose response, counter-screen for MazEF activator project, biochemical, fluorescence, single-stranded RNase substrate (AID 588502); format: functional
Streptokinase A = target: T2, Streptokinase A (Streptococcus pyogenes serotype M1, UniProt P10520); assay: S. pyogenes streptokinase expression inhibitors, potency, dose response, plasminogen activation absorbance, OD405 (AID 1914); format: functional, Streptococcus pyogenes M1 GAS;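 note: secreted streptokinase activity via plasminogen activation per viability signal from cell pellet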
T2 sequence (P10520 whole entry): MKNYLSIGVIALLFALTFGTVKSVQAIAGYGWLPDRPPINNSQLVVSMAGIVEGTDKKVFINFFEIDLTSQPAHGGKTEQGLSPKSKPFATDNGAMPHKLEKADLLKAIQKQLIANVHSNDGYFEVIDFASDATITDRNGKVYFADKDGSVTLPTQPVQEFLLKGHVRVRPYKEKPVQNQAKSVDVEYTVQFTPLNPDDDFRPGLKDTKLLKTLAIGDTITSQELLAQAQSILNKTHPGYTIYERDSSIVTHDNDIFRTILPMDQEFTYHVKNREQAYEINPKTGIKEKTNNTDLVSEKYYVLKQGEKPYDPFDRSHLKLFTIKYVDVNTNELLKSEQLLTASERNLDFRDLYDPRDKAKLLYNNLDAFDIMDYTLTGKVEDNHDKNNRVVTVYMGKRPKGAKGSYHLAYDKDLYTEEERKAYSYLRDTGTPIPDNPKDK

[5] = target: Luciferin 4-monooxygenase (Photinus pyralis, UniProt P08659); assay: firefly luciferase enzyme inhibitors, dose response, biochemical, luminescence (AID 1891)
[6] = Luminescence Cell-Based Dose Confirmation HTS to Identify Inhibitors of Platelet Dense Granule Release. [Related pubchem assays: 1663 (Primary HTS), 1678 (Summary of Project)]; format: functional
Streptococcus = assay: Group A Streptococcus viability loss, dose response, counter-screen for streptokinase expression inhibitor project, luminescence, BacTiterGlo (AID 1915); format: functional, organism-based;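 note: potency for reduction of bacterial viability or growth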
HeLa = assay: HeLa cell cytotoxicity, dose response, cytotoxicity control for MITF activator project, CellTiter-Glo luminescence, cherry-pick samples (AID 540259); format: functional, cell-based; conditions: Homo sapiens
cells = format: functional, cell-based
[7] = target: T3, Nuclear receptor subfamily 0 group B member 1 (Homo sapiens, UniProt P51843); format: functional, cell-based
[8] = HepG2 cell cytotoxicity, dose response, cytotoxicity control, ATP luminescence, cherry-pick, activator set 2 (AID 1053143); format: functional, cell-based
[9] = NIH-3T3 fibroblast cytotoxicity, dose response, cytotoxicity control, cell-based, fluorescence, Alamar Blue, secondary assay (AID 2327); format: functional;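 note: NIH-3T3 mouse fibroblasts cultured with fluconazole at 8 µg/mL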
[10] = C. albicans growth with fluconazole, confirmation, fluorescence, retest (AID 2467); format: functional, cell-based
[11] = target: Serine/threonine-protein phosphatase (Candida dubliniensis (strain CD36 / CBS 7987 / NCPF 3949 / NRRLY-17841) (Yeast), UniProt B9W6M3); assay: calcineurin pathway inhibitors in yeast reporter, dose response, S. cerevisiae, CDRE-lacZ, luminescence, secondary (AID 2388); format: functional, cell-based;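 note: yeast reporter cells carrying a calcineurin-responsive lacZ construct stimulated with calcium chloride; luminescent beta-galactosidase reporter signal in whole cells rather than isolated phosphatase activity; potency for inhibition where a drop in reporter signal means calcineurin blockade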
[12] = target: ATP-dependent molecular chaperone HSP82 (Candida albicans (strain WO-1) (Yeast), UniProt C4YTQ8); assay: loss of DOC-induced GRE-beta-galactosidase reporter signal, dose response, Hsp90 inhibitor project, S. cerevisiae, luminescence (AID 2400); format: functional, cell-based;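 note: beta-galactosidase luminescence from glucocorticoid response element reporter as proxy for Hsp90 function; inhibitor potency where signal loss means Hsp90 inhibition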
[13] = target: T4, Rac GTPase-activating protein 1 (Homo sapiens, UniProt Q9H0H5); assay: MgcRacGAP GTPase-activating activity inhibitors, confirmation, biochemical, ADP Hunter fluorescence, primary and confirmatory (AID 624330); format: functional
T4 sequence (Q9H0H5 whole entry): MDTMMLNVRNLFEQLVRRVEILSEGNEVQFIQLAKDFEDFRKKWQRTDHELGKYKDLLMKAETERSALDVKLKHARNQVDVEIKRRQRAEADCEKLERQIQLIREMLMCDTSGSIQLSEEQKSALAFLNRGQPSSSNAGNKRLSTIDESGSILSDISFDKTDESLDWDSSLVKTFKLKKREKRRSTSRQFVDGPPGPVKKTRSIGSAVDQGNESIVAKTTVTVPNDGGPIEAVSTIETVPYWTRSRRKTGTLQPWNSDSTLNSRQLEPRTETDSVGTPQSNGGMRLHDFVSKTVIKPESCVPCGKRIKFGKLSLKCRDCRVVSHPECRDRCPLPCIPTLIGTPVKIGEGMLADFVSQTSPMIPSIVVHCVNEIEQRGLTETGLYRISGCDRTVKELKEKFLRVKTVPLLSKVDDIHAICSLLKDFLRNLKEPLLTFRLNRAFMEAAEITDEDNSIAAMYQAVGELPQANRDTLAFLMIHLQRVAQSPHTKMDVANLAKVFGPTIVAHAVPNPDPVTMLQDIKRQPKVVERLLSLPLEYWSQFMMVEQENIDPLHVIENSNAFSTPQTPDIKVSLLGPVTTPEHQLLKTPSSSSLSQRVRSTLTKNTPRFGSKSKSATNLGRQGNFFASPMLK

HEK293 = assay: cells; format: functional, cell-based; conditions: Homo sapiens
[14] = target: T3, Nuclear receptor subfamily 0 group B member 1; assay: Luminescence-based cell-based high throughput dose response assay for inhibitors of the orphan nuclear receptor subfamily 0, group B, member 1 (DAX1; NR0B1). [Related pubchem assays (depositor defined):AID504766, AID504790]; format: functional
Cysteine protease ATG4B = Cysteine protease ATG4B (Homo sapiens, UniProt Q9Y4P1); format: functional;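 note: Fluorescence-based dose-response confirmation assay measuring inhibition of ATG4B activity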
Phospholipase A2 = Phospholipase A2 (Homo sapiens, UniProt P04054); format: functional;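 note: confirmatory dose-response counterscreen on phospholipase A2, testing hits that came from an ultra-high-throughput screen for ATG4B inhibitors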
Phospholipase D1 = Phospholipase D1 (Homo sapiens, UniProt Q13393); assay: PLD1 inhibitor potency in cells, dose response (AID 602151); format: functional;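 note: cellular PLD1 assay in Calu-1 cells stimulated with PMA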
Phospholipase D2 = Phospholipase D2 (Homo sapiens, UniProt O14939); assay: PLD2 inhibitor potency in cells, dose response (AID 602147); format: functional;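 note: cellular assay in HEK293 cells overexpressing GFP-tagged PLD2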
Phospholipase D2, sequence (O14939 whole entry): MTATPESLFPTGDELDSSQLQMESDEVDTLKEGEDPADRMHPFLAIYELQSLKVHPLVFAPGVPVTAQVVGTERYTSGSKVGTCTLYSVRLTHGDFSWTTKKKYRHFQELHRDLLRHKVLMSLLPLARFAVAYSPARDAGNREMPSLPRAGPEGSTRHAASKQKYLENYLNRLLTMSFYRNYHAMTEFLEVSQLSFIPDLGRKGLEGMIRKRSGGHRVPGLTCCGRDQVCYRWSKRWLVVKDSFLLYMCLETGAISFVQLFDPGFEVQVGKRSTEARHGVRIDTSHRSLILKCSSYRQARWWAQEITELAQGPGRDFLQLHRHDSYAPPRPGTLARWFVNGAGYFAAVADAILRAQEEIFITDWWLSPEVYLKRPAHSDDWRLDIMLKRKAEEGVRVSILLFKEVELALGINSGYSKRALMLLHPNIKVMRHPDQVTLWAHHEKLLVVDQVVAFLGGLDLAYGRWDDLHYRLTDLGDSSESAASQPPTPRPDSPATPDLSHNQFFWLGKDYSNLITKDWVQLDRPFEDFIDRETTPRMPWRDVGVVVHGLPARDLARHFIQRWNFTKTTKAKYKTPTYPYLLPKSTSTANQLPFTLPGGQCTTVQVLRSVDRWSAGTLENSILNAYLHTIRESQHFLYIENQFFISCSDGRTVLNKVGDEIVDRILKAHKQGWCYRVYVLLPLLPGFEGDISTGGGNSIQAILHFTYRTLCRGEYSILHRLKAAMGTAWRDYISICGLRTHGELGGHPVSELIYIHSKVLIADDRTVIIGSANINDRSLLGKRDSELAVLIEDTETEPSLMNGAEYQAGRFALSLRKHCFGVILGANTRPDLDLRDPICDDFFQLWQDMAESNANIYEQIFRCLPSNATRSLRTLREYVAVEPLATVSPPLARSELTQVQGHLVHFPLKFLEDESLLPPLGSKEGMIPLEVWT

T3 sequence (P51843 whole entry): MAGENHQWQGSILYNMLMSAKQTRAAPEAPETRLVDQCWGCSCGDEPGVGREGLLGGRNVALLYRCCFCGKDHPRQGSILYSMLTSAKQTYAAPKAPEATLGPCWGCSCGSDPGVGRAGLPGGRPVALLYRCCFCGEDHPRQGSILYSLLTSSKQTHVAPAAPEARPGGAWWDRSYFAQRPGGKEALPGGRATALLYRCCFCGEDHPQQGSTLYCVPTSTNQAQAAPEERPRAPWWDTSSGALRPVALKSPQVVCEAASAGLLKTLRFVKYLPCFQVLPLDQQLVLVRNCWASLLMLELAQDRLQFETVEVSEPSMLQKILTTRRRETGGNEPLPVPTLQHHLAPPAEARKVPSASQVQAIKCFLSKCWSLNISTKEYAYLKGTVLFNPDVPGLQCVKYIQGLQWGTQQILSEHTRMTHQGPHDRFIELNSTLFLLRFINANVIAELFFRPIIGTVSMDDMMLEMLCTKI
Serine/threonine-protein phosphatase, sequence (B9W6M3 whole entry): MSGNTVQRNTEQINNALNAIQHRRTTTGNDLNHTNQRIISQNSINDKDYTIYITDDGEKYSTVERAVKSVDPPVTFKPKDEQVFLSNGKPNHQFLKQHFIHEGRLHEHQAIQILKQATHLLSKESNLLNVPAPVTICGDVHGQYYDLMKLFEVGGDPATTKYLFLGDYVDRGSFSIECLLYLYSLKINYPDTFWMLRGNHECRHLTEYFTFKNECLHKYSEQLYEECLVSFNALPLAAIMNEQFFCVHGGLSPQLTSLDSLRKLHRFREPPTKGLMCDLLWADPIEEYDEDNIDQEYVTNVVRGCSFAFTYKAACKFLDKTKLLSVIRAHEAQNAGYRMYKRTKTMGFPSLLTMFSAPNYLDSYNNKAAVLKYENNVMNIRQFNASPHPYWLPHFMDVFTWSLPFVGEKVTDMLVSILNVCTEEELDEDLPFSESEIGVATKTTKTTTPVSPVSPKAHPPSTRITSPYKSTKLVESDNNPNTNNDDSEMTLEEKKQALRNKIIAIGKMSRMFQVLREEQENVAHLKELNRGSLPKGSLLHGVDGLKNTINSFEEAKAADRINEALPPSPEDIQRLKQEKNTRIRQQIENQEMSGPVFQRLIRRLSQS
Phospholipase D1, sequence (Q13393 whole entry): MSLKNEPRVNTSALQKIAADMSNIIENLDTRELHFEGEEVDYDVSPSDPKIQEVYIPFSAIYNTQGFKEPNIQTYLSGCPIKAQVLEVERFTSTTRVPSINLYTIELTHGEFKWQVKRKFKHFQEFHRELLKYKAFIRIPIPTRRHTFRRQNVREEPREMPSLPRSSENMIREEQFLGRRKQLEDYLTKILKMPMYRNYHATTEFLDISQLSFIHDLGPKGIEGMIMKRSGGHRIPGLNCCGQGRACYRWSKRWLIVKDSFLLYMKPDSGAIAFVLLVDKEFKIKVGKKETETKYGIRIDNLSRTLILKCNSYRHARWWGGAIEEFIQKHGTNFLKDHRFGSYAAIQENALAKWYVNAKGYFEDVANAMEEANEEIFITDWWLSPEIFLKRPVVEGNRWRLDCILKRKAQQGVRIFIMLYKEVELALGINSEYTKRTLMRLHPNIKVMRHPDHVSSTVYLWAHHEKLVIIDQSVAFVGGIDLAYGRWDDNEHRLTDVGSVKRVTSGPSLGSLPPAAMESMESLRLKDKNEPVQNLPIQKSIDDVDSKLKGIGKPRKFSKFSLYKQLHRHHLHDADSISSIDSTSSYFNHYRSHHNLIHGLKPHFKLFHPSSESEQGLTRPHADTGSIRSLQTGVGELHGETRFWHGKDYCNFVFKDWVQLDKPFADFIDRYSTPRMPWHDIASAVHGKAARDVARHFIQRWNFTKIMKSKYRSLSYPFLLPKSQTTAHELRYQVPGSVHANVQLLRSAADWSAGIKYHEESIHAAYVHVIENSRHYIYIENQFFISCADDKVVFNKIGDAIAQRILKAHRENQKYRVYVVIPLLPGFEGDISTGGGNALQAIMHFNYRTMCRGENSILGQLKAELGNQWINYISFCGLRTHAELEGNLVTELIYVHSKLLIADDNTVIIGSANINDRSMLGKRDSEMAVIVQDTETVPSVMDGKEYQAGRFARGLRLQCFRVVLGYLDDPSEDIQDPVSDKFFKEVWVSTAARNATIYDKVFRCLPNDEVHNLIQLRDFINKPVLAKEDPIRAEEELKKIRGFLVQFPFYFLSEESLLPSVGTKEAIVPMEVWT
Cysteine protease ATG4B, sequence (Q9Y4P1 whole entry): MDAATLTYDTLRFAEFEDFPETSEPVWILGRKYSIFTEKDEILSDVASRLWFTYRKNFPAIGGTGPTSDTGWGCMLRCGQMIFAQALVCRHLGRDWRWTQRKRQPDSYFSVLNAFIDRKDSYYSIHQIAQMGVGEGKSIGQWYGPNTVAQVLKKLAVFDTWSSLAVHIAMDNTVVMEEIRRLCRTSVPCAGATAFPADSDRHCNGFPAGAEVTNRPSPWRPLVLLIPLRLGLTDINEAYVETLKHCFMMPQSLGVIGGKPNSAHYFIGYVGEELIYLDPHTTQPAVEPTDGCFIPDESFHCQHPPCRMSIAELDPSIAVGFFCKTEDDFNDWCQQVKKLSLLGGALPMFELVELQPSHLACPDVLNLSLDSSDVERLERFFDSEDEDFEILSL
ATP-dependent molecular chaperone HSP82, sequence (C4YTQ8 whole entry): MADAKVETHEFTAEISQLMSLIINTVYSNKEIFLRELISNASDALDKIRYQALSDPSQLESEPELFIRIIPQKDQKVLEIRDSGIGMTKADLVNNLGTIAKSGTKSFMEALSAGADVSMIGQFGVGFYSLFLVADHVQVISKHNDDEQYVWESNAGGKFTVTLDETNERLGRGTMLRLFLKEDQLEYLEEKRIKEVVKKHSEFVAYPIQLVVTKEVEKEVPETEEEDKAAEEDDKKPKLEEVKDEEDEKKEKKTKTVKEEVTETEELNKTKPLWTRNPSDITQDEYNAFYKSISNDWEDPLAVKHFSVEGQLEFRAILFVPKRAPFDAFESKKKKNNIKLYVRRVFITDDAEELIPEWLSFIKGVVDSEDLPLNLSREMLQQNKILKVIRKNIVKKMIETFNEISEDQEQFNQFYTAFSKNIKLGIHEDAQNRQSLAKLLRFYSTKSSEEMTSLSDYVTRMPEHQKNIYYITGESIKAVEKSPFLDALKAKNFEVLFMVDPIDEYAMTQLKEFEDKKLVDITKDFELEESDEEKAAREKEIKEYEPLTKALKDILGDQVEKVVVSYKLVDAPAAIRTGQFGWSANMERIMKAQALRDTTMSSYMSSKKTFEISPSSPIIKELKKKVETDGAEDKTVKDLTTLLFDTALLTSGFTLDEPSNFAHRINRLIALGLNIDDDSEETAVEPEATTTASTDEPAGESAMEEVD
Luciferin 4-monooxygenase, sequence (P08659 whole entry): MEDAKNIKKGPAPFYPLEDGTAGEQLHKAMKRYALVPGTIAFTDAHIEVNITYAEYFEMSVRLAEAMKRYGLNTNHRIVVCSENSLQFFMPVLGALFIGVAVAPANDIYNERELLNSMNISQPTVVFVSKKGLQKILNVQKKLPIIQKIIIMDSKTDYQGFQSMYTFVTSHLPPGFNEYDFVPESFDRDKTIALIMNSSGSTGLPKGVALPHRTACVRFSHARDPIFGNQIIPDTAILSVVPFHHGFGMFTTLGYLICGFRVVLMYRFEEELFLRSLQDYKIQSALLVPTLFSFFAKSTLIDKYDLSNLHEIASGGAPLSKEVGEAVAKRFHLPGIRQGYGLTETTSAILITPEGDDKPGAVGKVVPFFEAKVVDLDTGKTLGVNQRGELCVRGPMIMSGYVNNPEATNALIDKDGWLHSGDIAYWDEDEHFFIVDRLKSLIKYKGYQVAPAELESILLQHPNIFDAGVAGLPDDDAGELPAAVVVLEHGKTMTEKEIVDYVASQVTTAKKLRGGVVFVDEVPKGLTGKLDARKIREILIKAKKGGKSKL
Phospholipase A2, sequence (P04054 whole entry): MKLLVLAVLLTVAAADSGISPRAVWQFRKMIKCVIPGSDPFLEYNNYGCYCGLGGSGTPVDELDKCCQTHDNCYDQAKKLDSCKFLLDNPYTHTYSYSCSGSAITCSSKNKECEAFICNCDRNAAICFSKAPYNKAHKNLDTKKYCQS

Structure (SMILES): O=C(NC(=O)c1ccc(F)cc1)Nc1nc(-c2cccs2)cc(C(F)(F)F)n1
- EC50 [1]: > 99 µM (inactive)
- EC50 [2]: 20.3 µM (inactive)
- CC50 (MEF): > 99 µM (inactive)
- EC50 [3]: > 99 µM (inactive)
- EC50 [4]: > 99 µM (inactive)

Structure (SMILES): O=C(Nc1ccccc1)C(=O)Nc1ccc2c(c1)N(C(=O)C1CC1)CCC2
- EC50 (Streptokinase A): > 150 µM (not active)
- EC50 [5]: 1.13 µM (active)
- EC50 [6]: 3.74 µM (active)
- EC50 (Streptococcus): 25.4 µM (active)
- AC50 (HeLa): 14.1 µM (active)
- IC50 (cells): > 67.5 µM (inactive)
- IC50 [7]: > 67.5 µM (inactive)
- AC50 [8]: 26 µM (active)

Structure (SMILES): COc1ccc(-n2c(=O)c3c4c(sc3n3c(S)nnc23)CCCC4)cc1
- EC50 [9]: 34.1 µM (inconclusive)
- EC50 [10]: 1.17 µM (active)
- EC50 [11]: > 180 µM (inactive)
- EC50 [12]: 4.45 µM (active)
- IC50 [13]: 35.7 µM (active)

Structure (SMILES): Cc1nc(N)nc(COc2ccccc2)n1
- IC50 (HEK293): > 67.4 µM (inactive)
- IC50 [14]: > 67.4 µM (inactive)

Structure (SMILES): O=C(c1ccc(Cl)c(S(=O)(=O)Nc2ccccc2C(=O)N2CCc3ccccc3C2)c1)N1CCc2ccccc2C1
- IC50 (Cysteine protease ATG4B): 15.6 µM (active)
- IC50 (Phospholipase A2): 10.7 µM (active)

Structure (SMILES): C[C@@H](CN1CCC(n2c(=O)[nH]c3ccccc32)CC1)NC(=O)c1ccc(F)c(F)c1
- IC50 (Phospholipase D1): 0.02 µM (active)
- IC50 (Phospholipase D2): 1.6 µM (active)
